Measurements reported in ChEMBL document CHEMBL5537174, “Discovery of Potent SOS1 PROTACs with Effective Antitumor Activities against NCI-H358 Tumor Cells In Vitro/In Vivo” (J Med Chem, 2024).

Key:
NCI-H358 [1] = assay: Antiproliferative activity against human NCI-H358 cells assessed as inhibition of cell proliferation incubated for 7 days by celltiter-glo 3D assay; format: functional, cell-based; details: NCI-H358, 168 h
[2] = biological target: Protein cereblon/Son of sevenless homolog 1 (Homo sapiens, UniProt Q07889+Q96SW2); assay: PROTAC activity at CRBN/SOS1 in human NCI-H358 cells assessed as induction of SOS1 degradation incubated for 6 hrs by Western blotting analysis; format: cell-based
Chain of Protein cereblon/Son of sevenless homolog 1 (Q07889 whole entry): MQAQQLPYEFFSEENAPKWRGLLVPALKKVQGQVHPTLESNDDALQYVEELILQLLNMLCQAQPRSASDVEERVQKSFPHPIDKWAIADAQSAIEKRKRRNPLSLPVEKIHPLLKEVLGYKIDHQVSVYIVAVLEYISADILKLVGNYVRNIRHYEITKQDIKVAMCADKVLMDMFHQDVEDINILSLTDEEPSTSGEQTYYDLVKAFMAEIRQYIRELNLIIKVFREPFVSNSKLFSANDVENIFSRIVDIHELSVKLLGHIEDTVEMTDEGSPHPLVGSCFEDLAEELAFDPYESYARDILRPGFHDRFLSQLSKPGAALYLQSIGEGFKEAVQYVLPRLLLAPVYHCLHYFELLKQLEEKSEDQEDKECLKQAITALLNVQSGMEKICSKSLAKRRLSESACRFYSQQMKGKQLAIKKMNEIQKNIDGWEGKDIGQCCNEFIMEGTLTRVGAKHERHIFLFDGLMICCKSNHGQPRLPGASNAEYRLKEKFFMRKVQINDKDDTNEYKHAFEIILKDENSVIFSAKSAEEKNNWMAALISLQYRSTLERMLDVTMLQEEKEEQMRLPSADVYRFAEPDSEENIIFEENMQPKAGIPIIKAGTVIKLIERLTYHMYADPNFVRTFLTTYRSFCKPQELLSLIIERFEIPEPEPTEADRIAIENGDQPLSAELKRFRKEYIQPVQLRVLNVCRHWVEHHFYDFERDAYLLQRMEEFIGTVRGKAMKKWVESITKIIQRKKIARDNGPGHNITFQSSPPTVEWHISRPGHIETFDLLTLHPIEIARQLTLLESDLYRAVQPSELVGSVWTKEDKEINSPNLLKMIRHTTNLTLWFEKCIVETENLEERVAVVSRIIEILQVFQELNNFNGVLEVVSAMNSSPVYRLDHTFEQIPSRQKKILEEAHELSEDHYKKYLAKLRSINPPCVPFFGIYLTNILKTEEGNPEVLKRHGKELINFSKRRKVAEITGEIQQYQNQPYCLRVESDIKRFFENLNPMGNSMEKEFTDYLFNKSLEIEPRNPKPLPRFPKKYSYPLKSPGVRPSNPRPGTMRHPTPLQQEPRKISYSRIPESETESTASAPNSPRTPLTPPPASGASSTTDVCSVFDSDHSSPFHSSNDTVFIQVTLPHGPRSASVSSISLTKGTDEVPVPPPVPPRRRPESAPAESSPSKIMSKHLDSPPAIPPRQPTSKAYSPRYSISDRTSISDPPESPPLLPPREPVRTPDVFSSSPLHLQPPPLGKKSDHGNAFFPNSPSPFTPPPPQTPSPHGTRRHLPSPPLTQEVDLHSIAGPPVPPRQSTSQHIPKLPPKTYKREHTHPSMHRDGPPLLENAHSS
Chain of Protein cereblon/Son of sevenless homolog 1 (Q96SW2 whole entry): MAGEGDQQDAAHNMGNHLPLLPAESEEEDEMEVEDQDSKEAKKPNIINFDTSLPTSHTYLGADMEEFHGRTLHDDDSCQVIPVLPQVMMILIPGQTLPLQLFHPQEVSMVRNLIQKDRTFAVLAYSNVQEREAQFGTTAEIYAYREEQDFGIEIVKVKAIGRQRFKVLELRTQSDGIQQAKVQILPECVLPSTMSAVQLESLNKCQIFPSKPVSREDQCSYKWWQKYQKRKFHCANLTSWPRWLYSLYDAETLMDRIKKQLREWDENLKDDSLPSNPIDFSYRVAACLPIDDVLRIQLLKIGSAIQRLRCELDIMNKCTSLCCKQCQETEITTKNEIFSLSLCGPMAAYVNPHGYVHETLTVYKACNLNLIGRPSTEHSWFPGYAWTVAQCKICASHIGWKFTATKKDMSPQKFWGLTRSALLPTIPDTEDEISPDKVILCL

SOS1-KRAS = SOS1-KRAS (Homo sapiens, UniProt Q07889); assay: Inhibition of SOS1/KRAS G12C mutant (unknown origin); format: protein-complex assay
Chain of SOS1-KRAS (Q07889 whole entry, looked up, stated change not applied): as the sequence (Q07889 whole entry) above

NCI-H358 [3] = assay: Antiproliferative activity against human NCI-H358 cells harboring G12C mutant assessed as inhibition of cell proliferation incubated for 7 days by celltiter-glo 3D assay; format: functional, cell-based; details: NCI-H358, 168 h
[4] = Toxicity in BALB/c nude mouse xenografted with human NCI-H358 cells assessed as body weight loss at 30 mg/kg, ip measured every 3 days for 21 days; format: organism-based; details: in vivo, 504 h, time 21 day
NCI-H358 [5] = assay: Antitumor activity against human NCI-H358 cells xenografted in BALB/c nude mouse assessed as tumor growth inhibition at 30 mg/kg, ip measured twice daily for 21 days; format: functional; details: NCI-H358, 504 h, time 21 day, read-out: TGI
DLD-1 = assay: Antiproliferative activity against human DLD-1 cells harboring G13D mutant assessed as inhibition of cell proliferation incubated for 7 days by celltiter-glo 3D assay; format: functional, cell-based; details: DLD-1, 168 h
[6] = Antiproliferative activity against human GP2d cells harboring G12D mutant assessed as inhibition of cell proliferation incubated for 7 days by celltiter-glo 3D assay; format: functional, cell-based; details: 168 h
NCI-H441 = assay: Antiproliferative activity against human NCI-H441 cells harboring G12V mutant assessed as inhibition of cell proliferation incubated for 7 days by celltiter-glo 3D assay; format: functional, cell-based; details: NCI-H441, 168 h
NCI-H358 [7] = assay: Antiproliferative activity against human NCI-H358 cells assessed as reduction in cell viability

SMILES	IC50 (NCI-H358 [1]) [µM]	other results
COc1cc2nc(C)nc(N[C@H](C)c3cc(N)cc(C(F)(F)F)c3)c2cc1OCC1(CN(C)C(=O)CN2CCC(CN3CCN(c4ccc5c(c4)C(=O)N(C4CCC(=O)NC4=O)C5=O)CC3)CC2)CC1 (stereo partly specified)	1.08	
COc1cc2nc(C)nc(N[C@H](C)c3cc(N)cc(C(F)(F)F)c3)c2cc1OCC1(CN(C)C(=O)C2CCN(C3CCC(Nc4cccc5c4C(=O)N(C4CCC(=O)NC4=O)C5=O)CC3)CC2)CC1 (stereo partly specified)	0.051	DC50 ([2]; read-out: DC50): 0.055 µM
COc1cc2nc(C)nc(N[C@H](C)c3cc(N)cc(C(F)(F)F)c3)c2cc1OCC1(CN(C)C(=O)C2CCN(C3CCN(c4ccc5c(c4)C(=O)N(C4CCC(=O)NC4=O)C5=O)CC3)CC2)CC1 (stereo partly specified)	0.684	
COc1cc2nc(C)nc(N[C@H](C)c3cc(N)cc(C(F)F)c3)c2cc1OCC1(CN(C)C(=O)CCCCCCNc2cccc3c2C(=O)N(C2CCC(=O)NC2=O)C3=O)CC1 (stereo partly specified)	0.016	DC50 ([2]; read-out: DC50): 0.045 µM
COc1cc2nc(C)nc(N[C@H](C)c3cc(N)cc(C(F)(F)F)c3)c2cc1OCC1(CN(C)C(=O)CCCCCCNc2cccc3c2CN(C2CCC(=O)NC2=O)C3=O)CC1 (stereo partly specified)	0.047	DC50 ([2]; read-out: DC50): 0.151 µM
CNCC1(COc2cc3c(N[C@H](C)c4cc(N)cc(C(F)(F)F)c4)nc(C)nc3cc2OC)CC1	0.102	IC50 (SOS1-KRAS): 0.01 µM
COc1cc2nc(C)nc(N[C@H](C)c3cc(N)cc(C(F)(F)F)c3)c2cc1OCC1(CN(C)C(=O)CCC(=O)N(C)C2CCC(Nc3cccc4c3C(=O)N(C3CCC(=O)NC3=O)C4=O)CC2)CC1 (stereo partly specified)	0.927	
COc1cc2nc(C)nc(N[C@H](C)c3cc(N)cc(C(F)(F)F)c3)c2cc1OCC1(CN(C)C(=O)CN2CCN(C3CN(c4ccc5c(c4)C(=O)N(C4CCC(=O)NC4=O)C5=O)C3)CC2)CC1 (stereo partly specified)	1.2	
COc1cc2nc(C)nc(N[C@H](C)c3cc(N)cc(C(F)(F)F)c3)c2cc1OCC1(CN(C)C(=O)C2CCC(NC3CCN(c4ccc5c(c4)C(=O)N(C4CCC(=O)NC4=O)C5=O)CC3)CC2)CC1 (stereo partly specified)	0.513	
COc1cc2nc(C)nc(N[C@H](C)c3cccc(C(F)(F)C(C)(C)O)c3F)c2cc1OCC1(CN(C)C(=O)CCCCCCNc2cccc3c2C(=O)N(C2CCC(=O)NC2=O)C3=O)CC1 (stereo partly specified)	0.358	
COc1cc2nc(C)nc(N[C@H](C)c3cccc(C#N)c3C)c2cc1OCC1(CN(C)C(=O)CCCCCCNc2cccc3c2C(=O)N(C2CCC(=O)NC2=O)C3=O)CC1 (stereo partly specified)	2.05	
COc1cc2nc(C)nc(N[C@H](C)c3cc(N)cc(C(F)(F)F)c3)c2cc1OCC1(CN(C)C(=O)CCCN(C)C2CCC(Nc3cccc4c3C(=O)N(C3CCC(=O)NC3=O)C4=O)CC2)CC1 (stereo partly specified)	0.814	
COc1cc2nc(C)nc(N[C@H](C)c3cc(N)cc(C(F)(F)F)c3)c2cc1OCC1(CN(C)C(=O)C2CCC(OC3CCN(c4ccc5c(c4)C(=O)N(C4CCC(=O)NC4=O)C5=O)CC3)CC2)CC1 (stereo partly specified)	0.733	
O=C(O)CCCCCCNc1cccc2c1C(=O)N(C1CCC(=O)NC1=O)C2=O (stereo unspecified)		DC50 [2]: Not Active
COc1cc2nc(C)nc(N[C@H](C)c3cc(N)cc(C(F)(F)F)c3)c2cc1OCC1(CN(C)C(=O)CN2CCC(OC3CCN(c4ccc5c(c4)C(=O)N(C4CCC(=O)NC4=O)C5=O)CC3)CC2)CC1 (stereo partly specified)	0.814	
COc1cc2nc(C)nc(N[C@H](C)c3cc(N)cc(C(F)(F)F)c3)c2cc1OCC1(CN(C)C(=O)C2CCN(C(=O)C3CCN(c4ccc5c(c4)C(=O)N(C4CCC(=O)NC4=O)C5=O)CC3)CC2)CC1 (stereo partly specified)	0.084	
COc1cc2nc(C)nc(N[C@H](C)c3cc(N)cc(C(F)(F)F)c3)c2cc1OCC1(CN(C)C(=O)CN2CCN(C3CCN(c4ccc5c(c4)C(=O)N(C4CCC(=O)NC4=O)C5=O)CC3)CC2)CC1 (stereo partly specified)	0.928	
COc1cc2nc(C)nc(N[C@H](C)c3cccc(C(F)F)c3F)c2cc1OCC1(CN(C)C(=O)CCCCCCNc2cccc3c2C(=O)N(C2CCC(=O)NC2=O)C3=O)CC1 (stereo partly specified)	0.216	DC50 ([2]; read-out: DC50): 0.54 µM
COc1cc2nc(C)nc(N[C@H](C)c3cc(N)cc(C(F)(F)F)c3)c2cc1OCC1(CN(C)C(=O)CCCCCCNc2ccc3c(c2)C(=O)N(C2CCC(=O)NC2=O)C3=O)CC1 (stereo partly specified)	0.799	
COc1cc2nc(C)nc(N[C@H](C)c3cc(N)cc(C(F)(F)F)c3)c2cc1OCC1(CN(C)C(=O)C2CCC(N3CCN(c4ccc5c(c4)C(=O)N(C4CCC(=O)NC4=O)C5=O)CC3)CC2)CC1 (stereo partly specified)	1.37	
COc1cc2nc(C)nc(N[C@H](C)c3cc(N)cc(C(F)(F)F)c3)c2cc1O[C@H]1CCOC1	0.026	IC50 (NCI-H358 [3]): 0.026 µM; Activity [4]: Non-Toxic; inhibition in vivo at 30 mg/kg (NCI-H358 [5]): 39.4%; IC50 (DLD-1): 0.102 µM; IC50 [6]: 0.017 µM; IC50 (NCI-H441): 0.068 µM; IC50 (NCI-H358 [7]): 0.024 µM

The next lines start with results.

IC50 (NCI-H358 [1]) [µM]	SMILES	other results
1.38	COc1cc2nc(C)nc(N[C@H](C)c3cc(N)cc(C(F)(F)F)c3)c2cc1OCC1(CN(C)C(=O)CCCCCCNc2cccc3c2C(=O)N(C2CCC(=O)N(C)C2=O)C3=O)CC1 (stereo partly specified)	DC50 [2]: Not Active
0.086	COc1cc2nc(C)nc(N[C@H](C)c3cc(N)cc(C(F)(F)F)c3)c2cc1OCC1(CN(C)C(=O)CCCCNc2cccc3c2C(=O)N(C2CCC(=O)NC2=O)C3=O)CC1 (stereo partly specified)	
1.14	COc1cc2nc(C)nc(N[C@H](C)c3cc(N)cc(C(F)(F)F)c3)c2cc1OCC1(CN(C)C(=O)CCOCCC#Cc2cccc3c2C(=O)N(C2CCC(=O)NC2=O)C3=O)CC1 (stereo partly specified)	
2.89	COc1cc2nc(C)nc(N[C@H](C)c3cc(N)cc(C(F)(F)F)c3)c2cc1OCC1(CN(C)C(=O)CCNc2cccc3c2C(=O)N(C2CCC(=O)NC2=O)C3=O)CC1 (stereo partly specified)	
0.114	COc1cc2nc(C)nc(N[C@H](C)c3cc(N)cc(C(F)(F)F)c3)c2cc1OCC1(CN(C)C(=O)COCCCCNc2cccc3c2C(=O)N(C2CCC(=O)NC2=O)C3=O)CC1 (stereo partly specified)	
1.38	COc1cc2nc(C)nc(N[C@H](C)c3cc(N)cc(C(F)(F)F)c3)c2cc1OCC1(CN(C)C(=O)COCCNc2cccc3c2C(=O)N(C2CCC(=O)NC2=O)C3=O)CC1 (stereo partly specified)	
0.591	COc1cc2nc(C)nc(N[C@H](C)c3cc(N)cc(C(F)(F)F)c3)c2cc1OCC1(CN(C)C(=O)CCCCCC#Cc2cccc3c2C(=O)N(C2CCC(=O)NC2=O)C3=O)CC1 (stereo partly specified)	
0.318	COc1cc2nc(C)nc(N[C@H](C)c3cc(N)cc(C(F)(F)F)c3)c2cc1OCC1(CN(C)C(=O)CCCCCCNc2nccc3c2C(=O)N(C2CCC(=O)NC2=O)C3=O)CC1 (stereo partly specified)	
0.075	COc1cc2nc(C)nc(N[C@H](C)c3cc(N)cc(C(F)(F)F)c3)c2cc1OCC1(CN(C)C(=O)CCCCCCOc2cccc3c2C(=O)N(C2CCC(=O)NC2=O)C3=O)CC1 (stereo partly specified)	
4.18	COc1cc2nc(C)nc(N[C@H](C)c3cc(N)cc(C(F)(F)F)c3)c2cc1OCC1(CN(C)C(=O)CCCCCCNc2ccc3c(c2F)C(=O)N(C2CCC(=O)NC2=O)C3=O)CC1 (stereo partly specified)	
0.22	COc1cc2nc(C)nc(N[C@H](C)c3cc(N)cc(C(F)(F)C(C)(C)O)c3)c2cc1OCC1(CN(C)C(=O)CCCCCCNc2cccc3c2C(=O)N(C2CCC(=O)NC2=O)C3=O)CC1 (stereo partly specified)	
0.334	COc1cc2nc(C)nc(N[C@H](C)c3cc(N)cc(C(F)(F)F)c3)c2cc1OCC1(CN(C)C(=O)CCCCCNc2cccc3c2C(=O)N(C2CCC(=O)NC2=O)C3=O)CC1 (stereo partly specified)	
0.063	COc1cc2nc(C)nc(N[C@H](C)c3cc(N)cc(C(F)(F)F)c3)c2cc1OCC1(CN(C)C(=O)CCCCCCNc2c(F)ccc3c2C(=O)N(C2CCC(=O)NC2=O)C3=O)CC1 (stereo partly specified)	
1.66	COc1cc2nc(C)nc(N[C@H](C)c3cc(N)cc(C(F)(F)F)c3)c2cc1OCC1(CN(C)C(=O)CCOCCNc2cccc3c2C(=O)N(C2CCC(=O)NC2=O)C3=O)CC1 (stereo partly specified)	
0.421	COc1cc2nc(C)nc(N[C@H](C)c3cc(N)cc(C(F)(F)F)c3)c2cc1OCC1(CN(C)C(=O)CCOCCOCCNc2cccc3c2C(=O)N(C2CCC(=O)NC2=O)C3=O)CC1 (stereo partly specified)	
0.023	COc1cc2nc(C)nc(N[C@H](C)c3cc(N)cc(C(F)(F)F)c3)c2cc1OCC1(CN(C)C(=O)CCCCCCNc2ccc(F)c3c2C(=O)N(C2CCC(=O)NC2=O)C3=O)CC1 (stereo partly specified)	DC50 ([2]; read-out: DC50): 0.063 µM
0.015	COc1cc2nc(C)nc(N[C@H](C)c3cc(N)cc(C(F)(F)F)c3)c2cc1OCC1(CN(C)C(=O)CCCOC2CCC(Nc3cccc4c3C(=O)N(C3CCC(=O)NC3=O)C4=O)CC2)CC1 (stereo partly specified)	DC50 ([2]; read-out: DC50): 0.035 µM
0.07	COc1cc2nc(C)nc(N[C@H](C)c3cc(N)cc(C(F)(F)F)c3)c2cc1OCC1(CN(C)C(=O)CCCOCCNc2cccc3c2C(=O)N(C2CCC(=O)NC2=O)C3=O)CC1 (stereo partly specified)	
0.018	COc1cc2nc(C)nc(N[C@H](C)c3cc(N)cc(C(F)(F)F)c3)c2cc1OCC1(CN(C)C(=O)C2CCN(CCNc3cccc4c3C(=O)N(C3CCC(=O)NC3=O)C4=O)CC2)CC1 (stereo partly specified)	DC50 ([2]; read-out: DC50): 0.044 µM
